Test results: ChEMBL document CHEMBL1146937, “Nitrobenzylcarbamate prodrugs of cytotoxic acridines for potential use with nitroreductase gene-directed enzyme prodrug therapy” (Bioorg Med Chem Lett, 2006)
Calls of active or inactive are those of the source. The rule behind the calls is not given here.

Tests used:
Format in all cases: functional, cell-based
[1] = system: HT-29; assay: Antiproliferative activity against HT29 cell line; details: Homo sapiens
[2] = system: V79; assay: Antiproliferative activity against V79 cell line; details: Cricetulus griseus
[3] = system: A549; assay: Antiproliferative activity against A549 cell line; details: Homo sapiens
[4] = system: L1210; assay: Antiproliferative activity against L1210 cell line; details: Mus musculus

IC50 [1] | IC50 [3] | Compound | IC50 [2] | Activity [4]
9 µM | > 10 µM | O=C(Nc1ccc2cc3ccccc3nc2c1COC(=O)OCc1ccc([N+](=O)[O-])cc1)OCc1ccc([N+](=O)[O-])cc1 | > 10 µM | –
2.5 µM | 3.5 µM | O=C(Nc1ccc2cc3ccccc3nc2c1CO)OCc1ccc([N+](=O)[O-])cc1 | 3.5 µM | –
– | – | Nc1ccc2cc3ccccc3nc2c1CO | – | Active
4.5 µM | – | CCOC(=O)Nc1ccc2cc3ccccc3nc2c1COC(=O)OCC | – | –
